Measurements reported in ChEMBL document CHEMBL1201862, “PubChem BioAssay data set” (2004).
The source made the active and inactive calls.

Key:
[1] = biological target: T1, DNA repair protein RAD52 homolog (Homo sapiens, UniProt P43351); format: functional, biochemical
T1 sequence (P43351 whole entry): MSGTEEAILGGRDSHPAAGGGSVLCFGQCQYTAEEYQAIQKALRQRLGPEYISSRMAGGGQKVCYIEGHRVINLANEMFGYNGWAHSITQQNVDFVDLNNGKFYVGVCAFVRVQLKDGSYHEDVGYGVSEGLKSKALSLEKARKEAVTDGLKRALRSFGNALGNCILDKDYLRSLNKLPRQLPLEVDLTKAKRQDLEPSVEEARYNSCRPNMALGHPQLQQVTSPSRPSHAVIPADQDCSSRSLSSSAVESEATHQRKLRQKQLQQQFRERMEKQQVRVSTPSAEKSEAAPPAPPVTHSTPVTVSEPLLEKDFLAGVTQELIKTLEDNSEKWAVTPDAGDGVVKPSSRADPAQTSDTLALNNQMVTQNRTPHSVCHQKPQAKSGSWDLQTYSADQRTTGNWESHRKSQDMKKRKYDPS

[2] = biological target: T2, Ubiquitin-conjugating enzyme E2 N (Homo sapiens, UniProt P61088); format: functional;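 also: Dose-response confirmation in a TR-FRET assay detecting UBC13-driven polyubiquitin chain formation, inhibition measured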
T2 sequence (P61088 whole entry): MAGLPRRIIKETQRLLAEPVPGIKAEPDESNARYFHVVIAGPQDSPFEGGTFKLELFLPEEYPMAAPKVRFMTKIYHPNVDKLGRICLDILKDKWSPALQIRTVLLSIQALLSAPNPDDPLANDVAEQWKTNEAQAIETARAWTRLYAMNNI

Leucine aminopeptidase = biological target: T3, Leucine aminopeptidase (Plasmodium falciparum 3D7, UniProt Q8IL11); experiment: P. falciparum M17LAP inhibitors, primary screen, biochemical, fluorogenic H-Leu-NHMec substrate, 1536-well (AID 1619); format: functional
T3 sequence (Q8IL11 whole entry): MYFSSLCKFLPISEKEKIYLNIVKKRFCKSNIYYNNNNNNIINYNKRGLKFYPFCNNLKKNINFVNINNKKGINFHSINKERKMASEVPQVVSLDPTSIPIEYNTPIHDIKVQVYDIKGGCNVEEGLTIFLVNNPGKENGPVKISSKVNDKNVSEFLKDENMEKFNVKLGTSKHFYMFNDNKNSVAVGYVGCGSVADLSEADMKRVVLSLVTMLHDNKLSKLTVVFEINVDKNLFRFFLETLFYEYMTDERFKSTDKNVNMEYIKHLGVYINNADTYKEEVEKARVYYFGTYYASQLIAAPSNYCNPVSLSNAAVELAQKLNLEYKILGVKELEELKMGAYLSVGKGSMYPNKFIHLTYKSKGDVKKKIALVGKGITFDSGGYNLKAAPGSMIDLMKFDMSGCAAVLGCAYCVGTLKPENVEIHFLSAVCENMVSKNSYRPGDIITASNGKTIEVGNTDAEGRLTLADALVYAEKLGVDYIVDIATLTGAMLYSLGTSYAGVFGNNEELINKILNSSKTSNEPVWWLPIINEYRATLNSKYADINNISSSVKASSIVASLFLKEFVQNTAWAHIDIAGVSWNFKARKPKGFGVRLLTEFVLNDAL

[3] = biological target: T4, Short transient receptor potential channel 4 (Mus musculus, UniProt Q9QUQ5); experiment: calcium entry via TRPC4 opening agents – cell-based, HEK293 TRPC4/mu-opioid, Fluo-4 calcium, dose response (AID 434937); format: functional
T4 sequence (Q9QUQ5 whole entry): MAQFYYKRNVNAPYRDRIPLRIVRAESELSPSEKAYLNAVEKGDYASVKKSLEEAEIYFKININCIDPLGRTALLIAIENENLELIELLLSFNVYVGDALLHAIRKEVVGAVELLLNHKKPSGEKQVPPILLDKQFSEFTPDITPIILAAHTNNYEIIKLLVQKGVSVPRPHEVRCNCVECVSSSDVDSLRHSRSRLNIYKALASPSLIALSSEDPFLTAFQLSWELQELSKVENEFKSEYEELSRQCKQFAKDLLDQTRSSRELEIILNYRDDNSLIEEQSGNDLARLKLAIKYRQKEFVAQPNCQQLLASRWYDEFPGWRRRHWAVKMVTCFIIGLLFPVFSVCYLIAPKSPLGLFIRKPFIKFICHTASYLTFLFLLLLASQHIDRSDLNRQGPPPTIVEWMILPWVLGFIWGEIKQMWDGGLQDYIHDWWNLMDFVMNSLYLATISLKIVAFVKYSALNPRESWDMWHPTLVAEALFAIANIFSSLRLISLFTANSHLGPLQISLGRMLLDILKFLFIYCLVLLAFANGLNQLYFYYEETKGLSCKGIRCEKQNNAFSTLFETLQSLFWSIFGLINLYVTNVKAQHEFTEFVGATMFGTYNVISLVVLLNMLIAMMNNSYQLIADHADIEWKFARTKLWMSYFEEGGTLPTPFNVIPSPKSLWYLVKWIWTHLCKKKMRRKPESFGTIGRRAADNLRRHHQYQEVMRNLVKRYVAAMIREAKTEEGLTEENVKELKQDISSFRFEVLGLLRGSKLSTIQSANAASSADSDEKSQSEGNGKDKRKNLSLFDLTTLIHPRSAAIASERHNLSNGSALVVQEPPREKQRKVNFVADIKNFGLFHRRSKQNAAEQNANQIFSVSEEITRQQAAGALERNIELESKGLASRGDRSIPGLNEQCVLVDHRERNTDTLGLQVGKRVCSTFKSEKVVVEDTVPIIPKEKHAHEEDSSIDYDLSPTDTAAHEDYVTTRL

[4] = biological target: T5, Corticotropin-releasing factor receptor 2/Corticotropin-releasing factor-binding protein (Homo sapiens, UniProt P24387+Q13324); experiment: activators of CRF receptor 2 with binding protein – uHTS hits, confirmation (AID 602473); format: functional; settings: read-out: EC50_Mean
T5 sequence (Q13324 whole entry): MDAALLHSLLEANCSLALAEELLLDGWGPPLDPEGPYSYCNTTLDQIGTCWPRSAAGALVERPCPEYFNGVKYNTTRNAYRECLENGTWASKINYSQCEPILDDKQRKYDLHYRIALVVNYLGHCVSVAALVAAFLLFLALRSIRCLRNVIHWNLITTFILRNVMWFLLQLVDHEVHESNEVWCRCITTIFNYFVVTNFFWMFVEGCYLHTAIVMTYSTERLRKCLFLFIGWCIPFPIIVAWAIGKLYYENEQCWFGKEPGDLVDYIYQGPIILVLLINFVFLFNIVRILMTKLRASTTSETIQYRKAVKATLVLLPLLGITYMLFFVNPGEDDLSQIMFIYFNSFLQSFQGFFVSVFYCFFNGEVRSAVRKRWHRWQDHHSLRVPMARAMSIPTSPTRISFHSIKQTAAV
T5 sequence (P24387 whole entry): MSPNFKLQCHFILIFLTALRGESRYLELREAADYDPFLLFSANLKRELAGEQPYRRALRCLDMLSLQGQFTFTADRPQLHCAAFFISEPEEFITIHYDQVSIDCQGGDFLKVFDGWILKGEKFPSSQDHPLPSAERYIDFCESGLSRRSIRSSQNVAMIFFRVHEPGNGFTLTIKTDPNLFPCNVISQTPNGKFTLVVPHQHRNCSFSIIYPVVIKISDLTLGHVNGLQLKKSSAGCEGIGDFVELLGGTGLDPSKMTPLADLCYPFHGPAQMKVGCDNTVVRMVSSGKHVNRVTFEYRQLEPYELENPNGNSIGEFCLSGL

[5] = biological target: T4, Short transient receptor potential channel 4; experiment: block of DAMGO-driven TRPC4 calcium entry – cell-based, HEK293 TRPC4/mu-opioid, Fluo-4 calcium, dose response (AID 434942); format: functional;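 also: potency of inhibitors blocking the TRPC4 calcium response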
cells [6] = format: functional, cell-based
cells [7] = format: functional, cell-based; remark: listed apart in the source
Paired box protein Pax-8 = Paired box protein Pax-8 (Homo sapiens, UniProt Q06710); experiment: PAX8 transcriptional activity inhibition in RMG-I – RMG-I cells, luciferase, cherry-pick, dose response (AID 687027); format: functional, cell-based;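 also: luciferase reporter driven by Pax8 target thyroperoxidase promoter measured by SteadyGlo luminescence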
Chain of Paired box protein Pax-8 (Q06710 whole entry): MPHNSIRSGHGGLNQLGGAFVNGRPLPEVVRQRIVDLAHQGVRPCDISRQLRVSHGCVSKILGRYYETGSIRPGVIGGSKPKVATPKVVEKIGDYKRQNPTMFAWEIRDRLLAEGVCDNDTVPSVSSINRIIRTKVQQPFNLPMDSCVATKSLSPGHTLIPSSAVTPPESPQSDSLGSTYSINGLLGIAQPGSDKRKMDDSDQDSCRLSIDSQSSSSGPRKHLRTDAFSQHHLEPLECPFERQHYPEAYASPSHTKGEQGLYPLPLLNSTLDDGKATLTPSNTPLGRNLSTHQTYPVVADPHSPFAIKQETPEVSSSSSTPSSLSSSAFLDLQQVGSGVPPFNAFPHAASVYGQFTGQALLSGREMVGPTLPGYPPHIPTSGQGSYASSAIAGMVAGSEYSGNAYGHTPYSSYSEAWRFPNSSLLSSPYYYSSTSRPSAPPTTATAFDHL

[8] = OVCAR8 cell viability loss – plate reader, dry powder samples, PAX8 project, dose response (AID 743197); format: functional, cell-based; settings: OVCAR-8
[9] = OVCAR-3 cell viability loss – plate reader, dry powder samples, PAX8 inhibitor project, dose response (AID 743044); format: functional, cell-based
Caspase-6 = biological target: T6, Caspase-6 (Homo sapiens, UniProt P55212); experiment: inhibition of CASP6 peptide cleavage – biochemical, VEID-R110 fluorescence, cherry-pick, dose response (AID 720632)
T6 sequence (P55212 whole entry): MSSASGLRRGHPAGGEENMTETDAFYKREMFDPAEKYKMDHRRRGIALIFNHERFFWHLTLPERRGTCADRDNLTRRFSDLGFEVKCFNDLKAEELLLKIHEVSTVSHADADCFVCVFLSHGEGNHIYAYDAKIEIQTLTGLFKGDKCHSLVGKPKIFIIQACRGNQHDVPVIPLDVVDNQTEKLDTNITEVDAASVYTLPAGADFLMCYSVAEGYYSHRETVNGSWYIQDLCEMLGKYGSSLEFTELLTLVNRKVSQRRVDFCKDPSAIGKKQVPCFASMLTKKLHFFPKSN

[10] = test system: Streptococcus sp. 'group A'; experiment: Streptococcus pyogenes SK(-)GAS viability under kanamycin – luminescence, BacTiterGlo, confirmation, counter-screen for streptokinase expression inhibitor project, dose response (AID 1900); format: functional, organism-based
INS1 = experiment: INS-1E survival protection against cytokine death – cell-based, luminescence, retest, dose response (AID 449756); format: functional; settings: Rattus norvegicus;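 also: cell death triggered by IL-1 beta plus TNF-alpha plus IFN-gamma mixture; protective hits raise ATP signal compared with cytokine alone wells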
[11] = DRD fibroblast viability loss – cell-based, non-viral oncogenic, luminescence, dose response (AID 1934); format: functional; settings: Homo sapiens
[12] = alpha-synuclein stem-loop luciferase translation blockers – H4 neuroglioma cells, luminescence, confirmation (AID 1988); format: functional, cell-based
[13] = luciferase reporter signal suppression in cells – H4 neuroglioma cells, luminescence, dose response (AID 1990); format: functional, cell-based
BJ [14] = experiment: BJ-TERT fibroblast viability loss – cell-based, RAS-independent, luminescence, dose response (AID 1933); format: functional; settings: Homo sapiens
BJ [15] = experiment: BJ-TERT-LT-ST fibroblast viability loss – cell-based, RAS-independent, luminescence, dose response (AID 1935); format: functional; settings: Homo sapiens;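 also: BJ fibroblasts immortalized with TERT plus LT and ST oncogenes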
Nonstructural protein 1 = Nonstructural protein 1 (Influenza A virus, UniProt Q194T2); format: functional, Influenza A virus (A/California/07/2009(H1N1))
Chain of Nonstructural protein 1 (Q194T2 whole entry): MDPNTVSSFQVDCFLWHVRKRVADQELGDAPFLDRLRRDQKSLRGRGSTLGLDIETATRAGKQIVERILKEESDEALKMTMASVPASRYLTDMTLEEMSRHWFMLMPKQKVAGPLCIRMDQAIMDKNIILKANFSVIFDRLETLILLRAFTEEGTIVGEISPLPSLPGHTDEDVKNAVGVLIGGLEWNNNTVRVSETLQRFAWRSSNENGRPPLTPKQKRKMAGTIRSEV

[16] = Luminescence Cell-Based Dose Response HTS to Identify Inhibitors of 5'UTR Stem-Loop Driven Prion Protein mRNA Translation in H4 Neuroglioblastoma Cells. [Related pubchem assays: 1827 (Project Summary), 1813 (Primary HTS)]; format: functional
BJ [17] = experiment: cells; format: functional, cell-based; settings: Homo sapiens
Streptococcus = experiment: GAS UMAA2166 growth inhibition – luminescence, BacTiterGlo, counter-screen for streptokinase expression inhibitor project, dose response (AID 1915); format: functional, organism-based;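 also: potency for reduction of bacterial viability or growth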

Compound: Cc1cccc(-c2nc3ccc(C(=O)NCCN4CCN(C)CC4)cc3nc2-c2cccc(C)c2)c1
- AC50 [1]: 9.79 µM (active)
- IC50 [2]: > 20 µM (inactive)

Compound: CCOc1ccc(NC(=O)CN2C(=O)C3CC=CCC3C2=O)cc1 (stereo unspecified)
- IC50 (Leucine aminopeptidase): 3.86 µM (active)

Compound: COc1cc(C(=O)NC(=S)NNC(=O)[C@H]2C[C@@H]2c2ccccc2)cc(OC)c1OC
- EC50 [3]: 3.76 µM (active)

Compound: COc1ccc(CNCCc2ccc3c(c2)OCO3)cc1Br
- EC50 [3]: 3.76 µM (active)

Compound: CCOc1ccccc1N(CC(=O)N1CCOCC1)S(=O)(=O)c1ccccc1
- EC50 [3]: 5.31 µM (active)
- EC50 [4]: 8.04 µM (active)
- EC50 [5]: 6.68 µM (active)

Compound: O=C(NCC(c1cccs1)N1CCOCC1)c1ccc(Cl)c([N+](=O)[O-])c1 (stereo unspecified)
- EC50 [3]: 5.31 µM (active)

Compound: Cc1cc(C)c(C#N)c(SCC(O)CS(=O)(=O)Cc2ccccc2)n1 (stereo unspecified)
- IC50 (Leucine aminopeptidase): 31.5 µM (active)

Compound: O=C(NC(Cc1ccc2c(c1)OCO2)C(=O)NC(Cc1ccccc1)C(=O)O)c1ccccc1 (stereo unspecified)
- IC50 (Leucine aminopeptidase): 19.7 µM (active)

Compound: CCCCN(C)CCCNC(=O)CN1N=C(c2ccc(Cl)cc2)CCC1=O
- EC50 [3]: 0.596 µM (active)

Compound: CCCn1c(O)cc(=O)nc1SCC(=O)N1CCc2ccccc2C1
- EC50 (cells [6]): > 29.9 µM (inactive)
- IC50 (cells [7]): > 29.9 µM (inactive)

Compound: COc1cccc(S(=O)(=O)Nc2ccc3c(c2)[C@H]2C[C@H](CC(=O)NCc4ccccc4F)O[C@H](CO)[C@H]2O3)c1
- AC50 (Paired box protein Pax-8): 16.1 µM (active)
- AC50 [8]: > 70 µM (inactive)

Compound: C[C@H]1CCCCO[C@H](CN(C)Cc2ccc(C(F)(F)F)cc2)[C@@H](C)CN([C@@H](C)CO)C(=O)c2cc(NS(=O)(=O)c3ccc(F)cc3)ccc2O1
- AC50 [9]: 44.9 µM (active)
- AC50 (Paired box protein Pax-8): 9.73 µM (active)
- AC50 [8]: 43.6 µM (active)

Compound: CSc1ccc(CN2CCC(C)(Oc3cnc(Cl)c4ccccc34)C2)cc1 (stereo unspecified)
- AC50 (Caspase-6): 46 µM (active)

Compound: C[C@H](CO)N1C[C@H](C)[C@H](CN(C)CC2CCCCC2)Oc2ccc(NS(=O)(=O)c3ccc(Cl)cc3)cc2CC1=O
- AC50 [9]: 58.6 µM (active)
- AC50 (Paired box protein Pax-8): 7.77 µM (active)

Compound: C[C@@H]1CCCCO[C@@H](CN(C)S(=O)(=O)c2cccs2)[C@H](C)CN([C@H](C)CO)C(=O)c2cc(NC(=O)Nc3ccc(C(F)(F)F)cc3)ccc2O1
- AC50 (Paired box protein Pax-8): 3.17 µM (active)
- AC50 [8]: > 70 µM (inactive)

Compound: Cc1[nH]n(-c2ccccc2)c(=O)c1N=Nc1c(O)cc(S(=O)(=O)N(C)C)c2ccccc12
- EC50 [10]: 2.21 µM (active)
- AC50 (INS1): 949 nM (active)
- EC50 [11]: 7.77 µM (active)
- EC50 [12]: 2.12 µM (active)
- EC50 [13]: 3.37 µM (active)
- EC50 (BJ [14]): 7.94 µM (active)
- EC50 (BJ [15]): 10.1 µM (active)
- IC50 (Nonstructural protein 1): 19.8 µM (active)
- EC50 [16]: 6.77 µM (active)
- EC50 (BJ [17]): 10.3 µM (active)
- EC50 (Streptococcus): 6.64 µM (active)

Compound: C/C(CC1CC(C)(C)OC1=O)=N/Nc1nc(-c2ccccc2)cs1 (stereo unspecified)
- IC50 (Leucine aminopeptidase): 52.8 µM (active)
